Test results taken from patent EP0314302A2, “Herbicidal o-carbomethoxy-sulfonylureas” (E.I. DU PONT DE NEMOURS AND COMPANY, priority 1987, dated 1989).

Key:
Narrowleaf panicum = assay: Test 3 postemergence weed control; format: in vivo, P. maximum; details: 32 g/ha, scale 0-100
Method: Seeds of crabgrass (Digitaria spp), guinea grass (Panicum maximum) and narrowleaf panicum (P. maximum) were planted in 15-cm plastic pots. The weeds were treated postemergence with compound I, formulated in a non-phytotoxic solvent, when the plants had 3 or more leaves and had tillered. The degree of weed control was visually rated 17 days after compound application (DAT). Control ratings were based on a scale of 0 to 100 where 0 = no effect, 20 = minimal control and 100 = complete control.

weed = assay: Test 6 effect of surfactants, postemergence; format: in vivo; details: addition of a surfactant
Description: The object of this test was to evaluate the effect of surfactants and plant growth stage on the efficacy of the compound of this invention. Plastic windowsill pots were filled with planting medium and seeded with yellow nutsedge (Cyperus esculentus), large crabgrass (Digitaria sanguinalis), goosegrass (Elsusine indica), bermudagrass (Cynodon dactylon), broadleaf signalgrass (Brachiara platyphalla), smooth crabgrass (Digitaria ischaemum), guinea grass (Panicum maximum) and johnsongrass (Sorghum halapense). Coffee (Coffea spp) plants with 2 to 4 branches were included in one test.
Plants were treated postemergence with Compound I formulated with different surfactants or a non-phytotoxic carrier made up of acetone-humectant-water-surfactant.

Black mustard = assay: Test 7 postemergence; format: in vivo, Brassica nigra; details: scale 0-100
Method: (§1) Individual 11.4-cm plastic pots filled with planting medium were seeded with rape, wild radish (Raphanus raphanistruna). tansy mustard (Descurainia pinnata), ball mustard (Neslia paniculata), black mustard (Brassica nigra), yellow mustard, brown mustard, lentils, safflower, flax, sunflower, peanut, vetch, alfalfa, field bean, pea, violet (Viola spp), Kochia (Kochia spp), Russian thistle (Salsola spp), Matricaria spp, groundsel (Senecio spp), shepherdspurse (Capsella bursa-pastoris), nightshade (Solanum spp), sowthistle (Sonchus spp), sugar beet, wheat, "Bonanza" barley and "Morex" barley, Kentucky bluegrass (Poa pratensis), red clover (Trifolium pratense), dandelion (Taraxacum spp) and buckhorn plantain (Plantago lanceolata).
(§2) Plants were treated postemergence with the compound formulated with a non-phytotoxic carrier. Plants were visually rated 18 days after treatment (DAT). Response ratings were based on the scale of 0 to 100 where 0 = no effect, 20 = minimal injury and 100 = complete control.

Viola = assay: Test 7 postemergence; format: in vivo, Viola spp; details: scale 0-100
Method: as §1, §2

Sowthistle = assay: Test 7 postemergence; format: in vivo, Sonchus spp; details: scale 0-100
Method: as §1, §2

Boston fern = assay: Test 9 postemergence; format: in vivo, Nephrolepis exalata; details: scale 0-100
Method: (§3) Plastic windowsill pots containing planting medium were seeded with bahiagrass, bindweed (Convolvulus spp), guinea grass (Panicum maximum), large crabgrass (Digitaria sanguinalis) and pigweed (Amaranthus spp). Individual 15-cm plastic pots contained sandbur (Cenchrus echinatus), Mikania cordata, Boston fern (Nephrolepis exalata), quackgrass (Agropyron repens), elephantgrass (Pennisetum purpureum) and sowthistle (Sonchus spp) plants.
(§4) Plants were treated postemergence with Compound I formulated in a non-phytotoxic solvent. Plants were visually rated 22 days after treatment (DAT). Injury and weed control ratings were based on the scale of 0 to 100 where 0 = no effect, 20 = minimal control and 100 = complete control.

Quackgrass = assay: Test 9 postemergence; format: in vivo, Agropyron repens; details: scale 0-100
Method: as §3, §4

Bindweed = assay: Test 9 postemergence; format: in vivo, Convolvulus spp; details: 16 g/ha, scale 0-100
Method: as §3, §4

Guinea Grass = assay: Test 9 postemergence; format: in vivo, Panicum maximum; details: 16 g/ha, scale 0-100
Method: as §3, §4

Green foxtail = assay: Test 10 postemergence safety to crops and weed control; format: in vivo, Setaria viridis; details: 16 g/ha, scale 0-100
Method: (§5) The object of these tests was to evaluate the compound of this invention for postemergence safety to crops and weed control. Seedling and budded Macedine grapes were grown in 11.4-cm pots. Flax, green foxtail (Setaria viridis), "Morex" barley, wild oats (Avena fatua), "Era" wheat, annual ryegrass (Lolium multiflorum), wild radish (Raphanus raphanistrum), rape, sunflower, chickweed (Stellaria media) and wild buckwheat (Polygonum convolvulus) were seeded in windowsill pots.
(§6) The plants were sprayed postemergence with Compound I in a non-phytotoxic solvent. Plants were visually rated 15 and 27 days after treatment (DAT). Injury and weed control ratings were based on the scale of 0 to 100 where 0 = no effect, 20 minimal control and 100 = complete control.

Annual ryegrass = assay: as above; format: in vivo, Lolium multiflorum; details: 16 g/ha, scale 0-100
Method: as §5, §6

Wild radish = assay: as above; format: in vivo, Raphanus raphanistrum; details: 16 g/ha, scale 0-100
Method: as §5, §6

Flax = assay: as above; format: in vivo; details: 16 g/ha, scale 0-100
Method: as §5, §6

Morex barley = assay: as above; format: in vivo; details: 16 g/ha, scale 0-100
Method: as §5, §6

Sunflower = assay: as above; format: in vivo; details: 16 g/ha, scale 0-100
Method: as §5, §6

Lantana = assay: Test 12 over-the-top application, postemergence; format: in vivo, Lantana camara; details: 26 days after treatment, scale 0-100
Description: The object of this test was to evaluate the safety of sour lemon to the over-the-top application of Compound I and control of lantana (Lantana camara) and trumpetcreeper (Campsis radicans). Plants were sprayed postemergence with Compound I formulated in a non-phytotoxic solvent. Treated plants were visually rated 26 days after treatment and compared with appropriate controls. Injury ratings were based on the scale of 0 to 100, where 0 indicates no effect, 20 indicates minimal effect and 100 indicates complete control.

## COC(=O)c1cccnc1S(=O)(=O)NC(=O)Nc1nc(OC)cc(OC)n1 [Compound I, 2-[[(4,6-dimethoxypyrimidin-2-yl)aminocarbonyl]aminosulfonyl]-3-pyridinecarboxylic acid, methyl ester]
Narrowleaf panicum
  Control Rating 17 DAT: 90
weed
  weed control: could improve the weed control
Black mustard; 16 g/ha
  Plant Injury Rating 18 DAT: 100
Black mustard; 32 g/ha
  Plant Injury Rating 18 DAT: 100
Viola; 16 g/ha
  Plant Injury Rating 18 DAT: 100
Viola; 32 g/ha
  Plant Injury Rating 18 DAT: 100
Sowthistle; 16 g/ha
  Plant Injury Rating 18 DAT: 100
Sowthistle; 32 g/ha
  Plant Injury Rating 18 DAT: 100
Boston fern; 8 g/ha
  Plant Injury Rating 22 DAT: 40
Boston fern; 16 g/ha
  Plant Injury Rating 22 DAT: 50
Boston fern; 32 g/ha
  Plant Injury Rating 22 DAT: 80
Quackgrass; 8 g/ha
  Plant Injury Rating 22 DAT: 70
Quackgrass; 16 g/ha
  Plant Injury Rating 22 DAT: 90
Quackgrass; 32 g/ha
  Plant Injury Rating 22 DAT: 100
Bindweed
  Plant Injury Rating 22 DAT: 70
Guinea Grass
  Plant Injury Rating 22 DAT: 60
Green foxtail
  Plant Injury Rating 15 DAT: 100
Annual ryegrass
  Plant Injury Rating 15 DAT: 100
Wild radish
  Plant Injury Rating 15 DAT: 100
Flax
  Plant Injury Rating 15 DAT: 100
Morex barley
  Plant Injury Rating 15 DAT: 100
Sunflower
  Plant Injury Rating 15 DAT: 100
Lantana; 8 g/ha
  Injury ratings: 0
Lantana; 16 g/ha
  Injury ratings: 10
Lantana; 32 g/ha
  Injury ratings: 30
